Assay results as given in PubChem BioAssay AID2060504 (Molecular Pharmacology Branch, DTP, NCI, 2025).

Test system: 636577-100-R-J1-PDC complex spheroid viability
Assay: Anticancer human tumor 636577-100-R-J1-PDC patient-derived endometrial adenocarcinoma cell line growth inhibition [GQUAD]
Details: for IC50: curve of first compound; for viability, T/C: stronger effect = lower value
In short: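 Multi-cell-type spheroids of tumor cells with HUVEC and mesenchymal stem cells, treated with drug combinations. Concentrations descend in half-log steps from near clinical Cmax, or from 10 microM where Cmax is unknown; viability read-out.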

[1] = second compound 0.0316 µM, first compound 0.0316 µM
[2] = second compound 0.0316 µM, first compound 0.1 µM
[3] = second compound 0.0316 µM, first compound 0.316 µM
[4] = second compound 0.0316 µM, first compound 1 µM
[5] = second compound 0.0316 µM, first compound 3.16 µM
[6] = second compound 0.0316 µM, first compound 10 µM
[7] = second compound 0.1 µM, first compound 0.0316 µM
[8] = second compound 0.1 µM, first compound 0.1 µM
[9] = second compound 0.1 µM, first compound 0.316 µM
[10] = second compound 0.1 µM, first compound 1 µM
[11] = second compound 0.1 µM, first compound 3.16 µM
[12] = second compound 0.1 µM, first compound 10 µM
[13] = second compound 0.316 µM, first compound 0.0316 µM
[14] = second compound 0.316 µM, first compound 0.1 µM
[15] = second compound 0.316 µM, first compound 0.316 µM
[16] = second compound 0.316 µM, first compound 1 µM
[17] = second compound 0.316 µM, first compound 3.16 µM
[18] = second compound 0.316 µM, first compound 10 µM
[19] = second compound 1 µM, first compound 0.0316 µM
[20] = second compound 1 µM, first compound 0.1 µM
[21] = second compound 1 µM, first compound 0.316 µM
[22] = second compound 1 µM, first compound 1 µM
[23] = second compound 1 µM, first compound 3.16 µM
[24] = second compound 1 µM, first compound 10 µM
[25] = second compound 3.16 µM, first compound 0.0316 µM
[26] = second compound 3.16 µM, first compound 0.1 µM
[27] = second compound 3.16 µM, first compound 0.316 µM
[28] = second compound 3.16 µM, first compound 1 µM
[29] = second compound 3.16 µM, first compound 3.16 µM
[30] = second compound 3.16 µM, first compound 10 µM
[31] = second compound 10 µM, first compound 0.0316 µM
[32] = second compound 10 µM, first compound 0.1 µM
[33] = second compound 10 µM, first compound 0.316 µM
[34] = second compound 10 µM, first compound 1 µM
[35] = second compound 10 µM, first compound 3.16 µM
[36] = second compound 10 µM, first compound 10 µM
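Also: viability read after seven days of drug exposure.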
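For viability, T/C in this document: luminescence signal used as a proxy for viable cells; 100% = DMSO vehicle control wells.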

**Q.** How did the IC50 (second compound 0.0316 µM) turn out when C=CCn1c(=O)c2cnc(Nc3ccc(N4CCN(C)CC4)cc3)nc2n1-c1cccc(C(C)(C)O)n1 + CN(C)c1ccc(Nc2c3ccc(NC(=O)CCN4CCCC4)cc3nc3cc(NC(=O)CCN4CCCC4)ccc23)cc1 was run?
**A.** The IC50 was 598 nM.

**Q.** What about the IC50 (second compound 0.1 µM) of the same molecule?
**A.** Its IC50 is 304 nM.

**Q.** What about the IC50 (second compound 0.316 µM) of the same molecule?
**A.** The IC50 was 382 nM.

**Q.** What about the IC50 (second compound 1 µM) of the same molecule?
**A.** Its IC50 is 353 nM.

**Q.** And the IC50 (second compound 3.16 µM)?
**A.** Its IC50 is under 31.6 nM.

**Q.** What about the IC50 (second compound 10 µM) of the same molecule?
**A.** Its IC50 is under 31.6 nM.

**Q.** What about the viability, T/C [1] of the same molecule?
**A.** The viability, T/C was 88.3%.

**Q.** What about the viability, T/C [2] of the same molecule?
**A.** Its viability, T/C is 67.3%.

**Q.** And the viability, T/C [3]?
**A.** Its viability, T/C is 81.4%.

**Q.** What about the viability, T/C [4] of the same molecule?
**A.** Its viability, T/C is 26.6%.

**Q.** What about the viability, T/C [5] of the same molecule?
**A.** The viability, T/C was 15.9%.

**Q.** And the viability, T/C [6]?
**A.** The viability, T/C was 9.28%.

**Q.** And the viability, T/C [7]?
**A.** The viability, T/C was 107%.

**Q.** What about the viability, T/C [8] of the same molecule?
**A.** Its viability, T/C is 73.6%.

**Q.** What about the viability, T/C [9] of the same molecule?
**A.** Its viability, T/C is 51.7%.

**Q.** And the viability, T/C [10]?
**A.** The viability, T/C was 28.9%.

**Q.** And the viability, T/C [11]?
**A.** The viability, T/C was 15.1%.

**Q.** And the viability, T/C [12]?
**A.** The viability, T/C was 9.88%.

**Q.** What about the viability, T/C [13] of the same molecule?
**A.** Its viability, T/C is 88.3%.

**Q.** And the viability, T/C [14]?
**A.** Its viability, T/C is 69.2%.

**Q.** What about the viability, T/C [15] of the same molecule?
**A.** Its viability, T/C is 57.7%.

**Q.** And the viability, T/C [16]?
**A.** The viability, T/C was 30.9%.

**Q.** What about the viability, T/C [17] of the same molecule?
**A.** Its viability, T/C is 15.2%.

**Q.** And the viability, T/C [18]?
**A.** The viability, T/C was 9.64%.

**Q.** What about the viability, T/C [19] of the same molecule?
**A.** The viability, T/C was 48.6%.

**Q.** What about the viability, T/C [20] of the same molecule?
**A.** Its viability, T/C is 63%.

**Q.** And the viability, T/C [21]?
**A.** Its viability, T/C is 52.1%.

**Q.** And the viability, T/C [22]?
**A.** Its viability, T/C is 32%.

**Q.** What about the viability, T/C [23] of the same molecule?
**A.** Its viability, T/C is 19.2%.

**Q.** What about the viability, T/C [24] of the same molecule?
**A.** Its viability, T/C is 11.6%.

**Q.** And the viability, T/C [25]?
**A.** Its viability, T/C is 37.6%.

**Q.** What about the viability, T/C [26] of the same molecule?
**A.** Its viability, T/C is 36.8%.

**Q.** And the viability, T/C [27]?
**A.** The viability, T/C was 30.9%.

**Q.** And the viability, T/C [28]?
**A.** The viability, T/C was 23.8%.

**Q.** What about the viability, T/C [29] of the same molecule?
**A.** Its viability, T/C is 16.5%.

**Q.** What about the viability, T/C [30] of the same molecule?
**A.** The viability, T/C was 10.8%.

**Q.** What about the viability, T/C [31] of the same molecule?
**A.** The viability, T/C was 5.9%.

**Q.** What about the viability, T/C [32] of the same molecule?
**A.** Its viability, T/C is 4.13%.

**Q.** And the viability, T/C [33]?
**A.** Its viability, T/C is 3.79%.

**Q.** And the viability, T/C [34]?
**A.** Its viability, T/C is 3.8%.

**Q.** What about the viability, T/C [35] of the same molecule?
**A.** Its viability, T/C is 2.91%.

**Q.** And the viability, T/C [36]?
**A.** Its viability, T/C is 0.74%.

**Q.** What does the source list for CC(C)(O)C1CCC(Nc2ccc3ncc(-c4cccc(C(F)(F)F)c4)n3n2)CC1 (centres undefined) + CN(C)c1ccc(Nc2c3ccc(NC(=O)CCN4CCCC4)cc3nc3cc(NC(=O)CCN4CCCC4)ccc23)cc1?
**A.** IC50 (second compound 0.0316 µM): 2080 nM; IC50 (second compound 0.1 µM): 1450 nM; IC50 (second compound 0.316 µM): 1580 nM; IC50 (second compound 1 µM): 1520 nM; IC50 (second compound 3.16 µM): < 31.6 nM; IC50 (second compound 10 µM): < 31.6 nM; viability, T/C [1]: 107%; viability, T/C [2]: 82%; viability, T/C [3]: 104%; viability, T/C [4]: 77.6%; viability, T/C [5]: 34.6%; viability, T/C [6]: 33.8%; viability, T/C [7]: 83.9%; viability, T/C [8]: 59.2%; viability, T/C [9]: 109%; viability, T/C [10]: 57.8%; viability, T/C [11]: 30%; viability, T/C [12]: 37.2%; viability, T/C [13]: 69.3%; viability, T/C [14]: 57.9%; viability, T/C [15]: 96.7%; viability, T/C [16]: 63.6%; viability, T/C [17]: 30.6%; viability, T/C [18]: 28.1%; viability, T/C [19]: 77.2%; viability, T/C [20]: 54.1%; viability, T/C [21]: 66.5%; viability, T/C [22]: 63.6%; viability, T/C [23]: 26.4%; viability, T/C [24]: 22.2%; viability, T/C [25]: 41.3%; viability, T/C [26]: 46.2%; viability, T/C [27]: 40.6%; viability, T/C [28]: 33.5%; viability, T/C [29]: 15.8%; viability, T/C [30]: 9.06%; viability, T/C [31]: 5.85%; viability, T/C [32]: 5.51%; viability, T/C [33]: 5.56%; viability, T/C [34]: 4.55%; viability, T/C [35]: 1.2%; viability, T/C [36]: 0.47%
